The record followed here is paper PMC7681098 (Theranostics, 2021).

Like-named read-outs stand apart in the source and are kept apart here. Where only a bound is given, the exact number is not on record here.

One experiment addresses T1, ERK1 (Homo sapiens, UniProt P27361).
T1 construct: purchased Reaction Biology Corporation (PA, USA)
Nature of the experiment: Kinase inhibition assay (Reaction Biology). Format: biochemical.

The next experiment concerns the target T2, ERK2/MAPK1 (Homo sapiens, UniProt P28482).
T2 construct: purchased Reaction Biology Corporation (PA, USA)
In words: Kinase inhibition assay (Reaction Biology). It is filed as biochemical.

The target in the next experiment is T3, JAK3 (Homo sapiens, UniProt P52333).
T3 construct: purchased Reaction Biology Corporation (PA, USA)
In words: Kinase inhibition assay (Reaction Biology). It is filed as biochemical.

Another experiment addresses FLT3 (Homo sapiens, UniProt P36888). Nature of the experiment: FLT3 autophosphorylation by western blot in MV4-11 and MOLM13 cells. Format: cell-based. The note with it: 2 h, read-out: IC50 of inhibition of FLT3 autophosphorylation. As to the method:
Western blot analysis was performed as previously described. AML cell lines, BaF3 transformed cell lines and human primary cells were treated with the indicated concentration of FLT3 inhibitors for 2 h. To examine the phosphorylation levels of FLT3-Y591 (Cat. #3464s), p44/42-Thr202/Tyr204 (Cat. #4370), whole-cell lysates were subjected to immunoblotting with the corresponding primary antibodies from Cell Signaling Technology (MA, USA). Anti-STAT5 (Cat. #a7733), anti-STAT5-Y694 (Cat. #ap0070), anti-ERK1/2 (Cat. #a1013), anti-AKT (Cat. #a7270), anti-AKT-Ser473 (Cat. #ap0098), anti-Caspase 3 (Cat. #a11021), anti-PARP1 (Cat. #a0010), anti-Bcl2 (Cat. #a19693), anti-Mcl-1 (Cat. #a0434), anti-Pim2 (Cat. #a9230), anti-Caspase8 (Cat. #a19549) and anti-FLT3 (Cat. #a12437) were purchased from ABclonal Company (Wuhan, China).
(A) Chemical structure of LT-171-861. […] Data were then fitted to obtain KD value. […] Data were first normalized by setting the highest and lowest value in each set to 100% and 0% respectively. Data were obtained in the presence of the LT-171-861 (blue circle) as positive the control and DMSO (red square) as the negative control. All experiments were performed at three independent occasions and data are given as the mean ± SD. […] Cell viability was evaluated by MTT assay respectively. The IC50 values were calculated using nonlinear regression.
A general note: Immunoblotting shows a protein as a band on a membrane.

In experiment [1] the test system is BaF3-transfected cells (FLT3-ITD-N676D, FLT3-ITD-F691L). In words: Intravenous implantation of BaF3-transfected cells, survival. Conditions: 10 mg/kg once every other day, 8 cycles. It is filed as in vivo, BALB/c nude mice. As to the method:
Data were shown as mean±SD. […] Data were shown as mean±SD. (C) An engrafted tumor model was used to evaluate in vivo antitumor activity. The NOD/SCID mice were intravenously inoculated with MV4-11 cells. […] Log-rank testing was used to compare survival curves among treatment groups. […] (D) Apoptotic assays in engraft model were evaluated by TUNEL assay and cell proliferative activity was measured by Ki67 assay. Images were acquired at ×40 magnification. (E) BALB/c nude mice were subcutaneously inoculated with MV4-11 cells (5×10^6) and bodyweight of each mouse was recorded every other day. (F) Representative photo of tumors from BALB/c nude mice which were inoculated with MV4-11 cells. (G) BALB/c nude mice were subcutaneously inoculated with BaF3 cells bearing FLT3-ITD-N676D (n=6) and FLT3-ITD-F691L (n=6) respectively. […] (H) BALB/c mice were intravenously inoculated with cells used in (G). […] Log-rank testing was used to compare survival curves among treatment groups. […] (I) Representative photos of spleens dissected from mice in (H) inoculated with BaF3 cells bearing FLT-3-ITD-F691L.
Cells were injected into the tail vein of BALB/c nude mice and allowed to engraft for 5 days. […] This schedule was repeated for 8 cycles.

T1 sequence (P27361 whole entry): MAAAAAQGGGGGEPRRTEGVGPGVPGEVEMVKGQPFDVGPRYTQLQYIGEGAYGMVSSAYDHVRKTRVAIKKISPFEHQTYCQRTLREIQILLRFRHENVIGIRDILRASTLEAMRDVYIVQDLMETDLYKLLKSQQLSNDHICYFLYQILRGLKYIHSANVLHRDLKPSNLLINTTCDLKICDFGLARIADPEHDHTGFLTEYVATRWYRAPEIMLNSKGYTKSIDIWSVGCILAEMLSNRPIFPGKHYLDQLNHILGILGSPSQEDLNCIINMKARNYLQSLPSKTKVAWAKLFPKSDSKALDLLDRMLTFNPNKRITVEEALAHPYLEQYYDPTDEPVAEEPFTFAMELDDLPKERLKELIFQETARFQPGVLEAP
T2 sequence (P28482 whole entry): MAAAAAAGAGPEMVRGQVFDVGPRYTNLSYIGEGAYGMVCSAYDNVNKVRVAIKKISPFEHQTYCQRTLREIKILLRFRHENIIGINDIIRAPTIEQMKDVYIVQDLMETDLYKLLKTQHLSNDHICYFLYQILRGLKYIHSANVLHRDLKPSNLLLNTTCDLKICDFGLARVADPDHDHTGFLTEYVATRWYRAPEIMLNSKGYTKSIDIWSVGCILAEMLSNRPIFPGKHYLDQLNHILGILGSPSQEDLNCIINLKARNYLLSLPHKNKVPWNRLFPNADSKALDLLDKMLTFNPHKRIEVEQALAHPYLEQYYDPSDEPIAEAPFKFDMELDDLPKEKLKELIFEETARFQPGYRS
Sequence of FLT3 (P36888 610-943 limits assumed): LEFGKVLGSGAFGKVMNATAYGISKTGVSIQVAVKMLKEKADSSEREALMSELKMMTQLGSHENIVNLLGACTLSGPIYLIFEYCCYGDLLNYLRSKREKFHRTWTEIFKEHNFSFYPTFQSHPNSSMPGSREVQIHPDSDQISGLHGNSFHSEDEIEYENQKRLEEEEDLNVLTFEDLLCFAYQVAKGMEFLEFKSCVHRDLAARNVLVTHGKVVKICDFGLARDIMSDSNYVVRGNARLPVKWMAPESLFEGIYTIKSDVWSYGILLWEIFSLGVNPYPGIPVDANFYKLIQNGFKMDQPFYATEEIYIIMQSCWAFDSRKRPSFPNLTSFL
T3 sequence (P52333 whole entry): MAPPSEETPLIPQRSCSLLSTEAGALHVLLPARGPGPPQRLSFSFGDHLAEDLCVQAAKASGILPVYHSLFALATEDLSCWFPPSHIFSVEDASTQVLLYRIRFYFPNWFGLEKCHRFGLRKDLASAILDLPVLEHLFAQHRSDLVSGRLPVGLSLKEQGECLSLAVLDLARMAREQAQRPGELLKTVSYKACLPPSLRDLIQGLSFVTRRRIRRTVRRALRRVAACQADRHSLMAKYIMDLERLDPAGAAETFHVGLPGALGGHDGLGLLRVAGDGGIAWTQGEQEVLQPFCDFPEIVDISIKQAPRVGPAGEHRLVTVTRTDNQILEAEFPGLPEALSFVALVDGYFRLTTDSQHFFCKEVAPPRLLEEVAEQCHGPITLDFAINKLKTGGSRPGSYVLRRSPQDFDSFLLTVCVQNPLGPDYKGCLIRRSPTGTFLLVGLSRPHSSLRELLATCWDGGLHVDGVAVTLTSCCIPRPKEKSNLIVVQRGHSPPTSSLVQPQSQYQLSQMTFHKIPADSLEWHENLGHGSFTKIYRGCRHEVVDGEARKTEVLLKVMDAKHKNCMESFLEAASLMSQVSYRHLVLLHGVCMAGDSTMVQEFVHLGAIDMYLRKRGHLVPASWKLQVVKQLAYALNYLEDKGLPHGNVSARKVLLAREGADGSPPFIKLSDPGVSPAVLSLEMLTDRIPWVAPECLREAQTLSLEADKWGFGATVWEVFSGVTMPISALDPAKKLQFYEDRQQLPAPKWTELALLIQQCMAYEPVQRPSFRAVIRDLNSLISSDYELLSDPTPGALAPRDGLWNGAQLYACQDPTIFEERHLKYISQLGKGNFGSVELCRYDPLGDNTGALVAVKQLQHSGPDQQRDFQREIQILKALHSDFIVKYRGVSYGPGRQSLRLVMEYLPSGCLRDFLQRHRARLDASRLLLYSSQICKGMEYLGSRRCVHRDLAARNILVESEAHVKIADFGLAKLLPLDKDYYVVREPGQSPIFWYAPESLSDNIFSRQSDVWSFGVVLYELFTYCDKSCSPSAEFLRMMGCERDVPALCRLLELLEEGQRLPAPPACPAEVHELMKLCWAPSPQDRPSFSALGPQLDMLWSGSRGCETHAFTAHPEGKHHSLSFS

In the case of `CN1CCN(Cc2ccc(NC(=O)c3n[nH]cc3Nc3ncnc4[nH]ccc34)cc2)CC1` [LT-171-861], the IC50 against ERK1 is above 200 nM; against ERK1 (10 μM ATP, 10-dose IC50 mode), 1060 nM; at ERK2/MAPK1 (10 μM ATP, 10-dose IC50 mode, read-out: IC50 ERK2/MAPK1), 798 nM; at ERK2/MAPK1 (read-out: IC50 ERK2), above 200 nM; at JAK3 it was 32.6 nM; at FLT3, at most 40 nM. Further, the survival versus vehicle entry in experiment [1] is given as “significant survival advantage”.
